Where two headings read alike, the source gives them in different places.
Tested on: α7 integrin (LacZ reporter in α7LacZ+/− myoblasts)
Assay: qHTS of the LOPAC library and MLSMR (online screen, α7LacZ+/− myoblasts)
Conditions: Mus musculus, Myoblast; for activation at 0.307 µM: read-out: Activity at 0.307 uM [%] **; for activation at 1.53 µM: read-out: Activity at 1.530 uM [%] **; for activation at 7.66 µM: read-out: Activity at 7.660 uM [%] **; for activation at 38.3 µM: read-out: Activity at 38.30uM [%] **; for EC50: read-out: Fit LogAC50 (converted)
[1] = 48 h, read-out: Fit Infinite Activity [%]

Description: A total of 250 α7LacZ^+/− myoblasts at passage 13 were dispensed using a multidrop (Thermo) into black low base tissue culture treated microclear aurora plates in 6 μl media containing DMEM without phenol, 5% FBS, 1× GluMax and 1× Penicillin/Streptomycin. […] Compounds were then dispensed using a Kalypsys pintool to deliver 23 nl/well compounds in DMSO (diluted into 6 μl resulting in a 1:260 dilution of compound). […] After incubation with compound, 5 μl of the media was aspirated using the Kalypsys washer/dispenser and 3 μl of the Mammalian Protein Extraction Reagent (MPER) lysis buffer (Thermo Fisher) was added. […] The plates were then incubated for 10 minutes at room temperature.
The assay was adapted for a high-throughput screen with the fully automated Kalypsys robotic system using 1536 well plates at NCGC.

Row | SMILES | activation at 0.307 µM (48 h) [%] | activation at 1.53 µM (48 h) [%] | activation at 7.66 µM (48 h) [%] | activation at 38.3 µM (48 h) [%] | Emax [1] [%] | EC50 [µM] | Emax (read-out: Max Response [%]) [%]
1 | Cc1nc2c(cnn2-c2ccccc2)c(=O)n1/N=C/c1ccccc1 [Compound 171] | 10 | 10.2 | 28.1 | 68.4 | 69.5 | 10 | 68.4
2 | COc1ccc(CN2CCNC(=O)C2CC(=O)NCCc2c[nH]c3ccccc23)c(OC)c1 (stereo not drawn) [Compound 208] | -7.84 | -10.8 | 16.4 | 73.4 | 74.6 | 10 | 73.4
3 | O=C(COC(=O)Cn1cnc2ccccc21)Nc1cccc([N+](=O)[O-])c1 [Compound 119] | -17.1 | -14.7 | 0.628 | 112 | 112 | 11.2 | 112
4 | Cc1ccc(-c2csc(Nc3ccc(C(=O)O)cc3)[n+]2Cc2ccccc2)cc1 [Compound 126] | 5.18 | 19 | 58.1 | 102 | 125 | – | 102
5 | NC(=O)c1nsc(C(=O)N(c2ccccc2)C(C(=O)NCc2ccc(F)cc2)c2ccc(O)cc2)c1N (stereo not drawn) [Compound 16] | -30.2 | 5.64 | 58.2 | 75.2 | 77.5 | 2.24 | –
6 | CCCOc1nc(SCCC)nc2c1cnn2-c1ccccc1 [Compound 178] | -21.2 | -11.3 | 18.9 | 64.3 | 85.3 | – | 64.3
7 | COc1ccccc1-c1coc2c3c(ccc2c1=O)OC1CCCCN1C3 (stereo not drawn) [Compound 3] | -34.2 | 9.57 | 154 | 159 | 158 | 2.24 | –
8 | CCOc1ccc(NC(=O)CN2C(=O)NC(CCSC)C2=O)cc1 (stereo not drawn) [Compound 180] | 0 | -2.4 | 21.3 | 75.1 | 76.1 | 10 | 75.1
9 | CC(C(=O)Nc1ccc(C#N)cc1)N(C)CC(=O)Nc1cccc(F)c1 (stereo not drawn) [Compound 186] | -37.2 | -17.7 | 15.1 | 37.2 | 48 | – | 37.2
10 | CCCn1c(-c2cc(OC)c(OC)c(OC)c2)nc2c1c(=O)[nH]c(=O)n2Cc1ccccc1 [Compound 54] | 42 | 58.6 | 120 | 213 | 262 | 12.6 | 213
11 | C/C(CC(=O)Nc1ccc(Cl)c(C(F)(F)F)c1)=N\NC(=O)c1cnccn1 [Compound 38] | -0.625 | -2.88 | 69.2 | 72.7 | 73.5 | 4.47 | –
12 | O=[N+]([O-])c1cccc(S(=O)(=O)N2CCN(S(=O)(=O)N3CCOCC3)CC2)c1 [Compound 158] | 0.67 | 0.634 | 26.3 | 65.9 | 70.7 | 10 | 65.9
13 | O=C(Nc1ccc(S(=O)(=O)Nc2nccs2)cc1)c1ccccc1OC(F)F [Compound 137] | -19.2 | -19.4 | -1.67 | 61.8 | 61.7 | 10 | 61.8
14 | Cc1cc(-c2ccccc2)n2nc(N)nc2n1 [Compound 127] | -20 | -16.1 | -2.95 | 151 | 152 | – | 151
15 | CC1CCN(S(=O)(=O)c2ccc(S(=O)(=O)N3CCCC3)cc2)CC1 [Compound 72] | 0.91 | -2.48 | 54.5 | 132 | 136 | 8.91 | 132
16 | CN(C)S(=O)(=O)c1ccc(C(=O)Nc2nc3ccccc3[nH]2)cc1 [Compound 116] | -9.1 | -3.94 | 36.7 | 84.9 | 94.8 | 8.91 | 84.9
17 | O=C(Cn1cccc1C(=O)c1ccccc1)NCCCc1ccccc1 [Compound 43] | 13.7 | 43.9 | 94.3 | 131 | 148 | 3.98 | –

From patent publication US9980943B2, “Methods of treating muscular dystrophy” (BOARD OF REGENTS OF THE NEVADA SYSTEM OF HIGHER EDUCATION, …, priority 2013, dated 2018)
